Read-outs that look alike come from different tables or passages of the source.
Assays:
[1] = system: HIV-1 infection of TZM-bl cells; test: HIV-1 infectivity enhancement assay, β-galactosidase luminescence; format: cell-based; details: for Rel-EFC / Log10 Infection Rel EFC: 1.3 µM peptide; for Rel-EFC: infection relative to EF-C (QCKIKQIINMWQ = 1); for Log10 Infection Rel EFC: log10 of infection relative to EF-C; for Log Infectivity: Log10 infection relative to EF-C, asymmetric std dev errors; for Log10 Infection Rel EF-C: HIV-1 infection of TZM-bl cells; for Log10 of Rel to EFC (Feb2021): Log10 of infection relative to EF-C, all peptides of FigS16
[2] = format: physicochemical; details: for ThT Cat. / ThT-Fluorescence (categorical): ThT-active if fluorescence at least twice the control
In short: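 Preformed peptide fibrils (1 mg/mL) mixed with 50 µM ThT in PBS, 15 min at RT, fluorescence ex 440/em 488 nm versus PBS blank, triplicates. Zeta potential: peptides at 1 mg/mL in PBS pH 7.4, aged 1 d at RT, diluted in 1 mM KCl, Smoluchowski from electrophoretic mobility.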

[3] = β-sheet content by ATR-FT-IR; format: physicochemical; details: Fig. S7 panel A; β-sheet content by ATR-FT-IR
In short: (§1)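 Using ATR FT-IR (diamond, 2 cm^-1, 64 scans), lyophilized 1 mg/mL PNF samples gave β-sheet content by a published calculation. Fluorescamine signals of 3 kDa filtrates relative to unfiltered samples, normalised to DMSO as 1, yielded CR in percent.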

[4] = Conversion rate (CR) assay with fluorescamine; format: physicochemical; design: key to CR: % = 100−100×filtrate/original fluorescence intensity; details: conversion rate, fluorescamine assay; for CR / %: Fig. S7 panel B
In short: as §1

[5] = Fig. S7 panel A (plotted against β-sheet content), TZM-bl cells
[6] = Fig. S7 panel B (plotted against CR), rounded to two decimals, TZM-bl cells
[7] = Log10 of infection rate relative to EF-C, Figure 3A source data
[8] = infection rate relative to EF-C, log10, data of Figure 2D
[9] = infection rate relative to EF-C, log10, source data of Figure 2C
[10] = ThT fluorescence category, 1 if Rel. ThT >2

Row | Substance | Rel-EFC [1] | Log10 Infection Rel EFC [1] | Log Infectivity [1, 5] | Log Infectivity [1, 6] | Log10 Infection Rel EF-C [1, 7] | Log10 Infection Rel EF-C [1, 8] | Log10 Infection Rel EF-C [1, 9] | Log10 of Rel to EFC (Feb2021) [1] | Tht category (> 2 to blank = +) ([2]; Fig S10 panel D) | ThT Cat. ([2]; Fig S10 panel E) | ThT Cat, ([2]; ThT category, 1 if Rel. ThT >2) | ThT Cat. [2, 10] | ThT Cat. / ThT-Fluorescence (categorical) [2] | b -sheet / % [3] | CR / % [4] | CR [4] | Tht category (> 2 to blank = +) ([2]; FigS12 panel A) | ThT Cat, ([2]; FigS12 panel B) | other results
1 | CKIKIQINM | 1,59 | 0,2 | 0.2012 | 0.2 | 0.2 | 0.2012 | 0.2012 | 0.2 | 1 (ThT. Cat is 1, if Rel. ThT >2) | 1 (ThT. Cat is 1, if Rel. ThT >2) | 1 (ThT. Cat is 1, if Rel. ThT >2) | 1 (ThT. Cat is 1, if Rel. ThT >2) | 1 (ThT. Cat is 1, if Rel. ThT >2) | 42.84% | 75.5% | 75.5 | – | – | –
2 | CKIKIQIRGD | 0,33 | -0,48 | -0.4842 | -0.48 | -0.48 | -0.4842 | -0.4842 | -0.48 | 0 (ThT-inactive (N-Fold <2)) | 0 (ThT-inactive (N-Fold <2)) | 0 (ThT-inactive (N-Fold <2)) | 0 (ThT-inactive (N-Fold <2)) | 0 (ThT-inactive (N-Fold <2)) | 58.14% | 91% | 91 | – | – | –
3 | CKIKQII | 0,04 | -1,38 | -1.379 | -1.38 | -1.38 | -1.379 | -1.379 | – | 1 (ThT. Cat is 1, if Rel. ThT >2) | 1 (ThT. Cat is 1, if Rel. ThT >2) | 1 (ThT. Cat is 1, if Rel. ThT >2) | 1 (ThT. Cat is 1, if Rel. ThT >2) | 1 (ThT. Cat is 1, if Rel. ThT >2) | 25% | 55% | 55 | 1 (ThT. Cat is 1, if Rel. ThT >2) | 1 (ThT. Cat is 1, if Rel. ThT >2) | Abs. Inf. / RLU s-1 ([1]; absolute infection rate, peptide 1.3 µM on cells, virus preincubated 10 min with fibrils, read 3 days post infection, mean of triplicate): 796.7 RLU s-1; Abs. Infection at 0.26 µM ([1]; peptide 0.26 µM, mean of triplicate): 430
4 | CKIKQIINMWQ | 1,24 | 0,09 | 0.09484 | 0.09 | 0.09 | 0.09484 | 0.09484 | 0.09 | 1 (ThT. Cat is 1, if Rel. ThT >2) | 1 (ThT. Cat is 1, if Rel. ThT >2) | 1 (ThT. Cat is 1, if Rel. ThT >2) | 1 (ThT. Cat is 1, if Rel. ThT >2) | 1 (ThT. Cat is 1, if Rel. ThT >2) | 51% | 50% | 50 | – | – | –
5 | CKIW | 0,05 | -1,29 | -1.286 | -1.29 | -1.29 | -1.286 | -1.286 | – | 0 (ThT-inactive (N-Fold <2)) | 0 (ThT-inactive (N-Fold <2)) | 0 (ThT-inactive (N-Fold <2)) | – | 0 (ThT-inactive (N-Fold <2)) | 46.02% | 48.3% | 48.26 | 0 (ThT-inactive (N-Fold <2)) | 0 (ThT-inactive (N-Fold <2)) | Abs. Inf. ([1]; absolute HIV-1 infection signal, TZM-bl cells, β-galactosidase luminescence): 290; ThT Cat. ([2]; ThT category, 1 if Rel. ThT >2): 0 (ThT-inactive (N-Fold <2))

— paper PMC10447463, “Data-mining unveils structure–property–activity correlation of viral infectivity enhancing self-assembling peptides” (Nature Communications, 2023)
